Measurements from patent US7816522B2, “Triazolone derivatives” (Eisai Co., Ltd., priority 2006, dated 2010).
Where a name gives a salt, the structure may show the parent alone.

target: T1, human clotting factor VIIa (Homo sapiens, UniProt P08709); experiment: Inhibitory activity against clotting factor VIIa (chromogenic substrate Spectrozyme FVIIa, TF/Factor VIIa enzyme solution); format: biochemical; details: human Factor VIIa 5 nmol/L with human TF 10 nmol/L, room temperature 40 minutes, 405 nm
T1 construct: a human clotting factor VIIa (hereinafter, “Factor VIIa”) purified sample; purchased Enzyme Research Laboratories HFVIIa
T1 sequence (P08709 213-466 limits assumed): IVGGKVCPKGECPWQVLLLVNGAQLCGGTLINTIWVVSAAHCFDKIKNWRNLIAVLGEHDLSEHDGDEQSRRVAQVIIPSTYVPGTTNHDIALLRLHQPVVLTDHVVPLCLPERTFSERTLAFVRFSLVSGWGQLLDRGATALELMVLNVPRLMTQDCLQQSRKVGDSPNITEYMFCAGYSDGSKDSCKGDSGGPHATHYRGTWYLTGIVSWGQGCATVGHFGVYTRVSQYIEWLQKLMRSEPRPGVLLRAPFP
T1 sequence (P08709 61-212 limits assumed): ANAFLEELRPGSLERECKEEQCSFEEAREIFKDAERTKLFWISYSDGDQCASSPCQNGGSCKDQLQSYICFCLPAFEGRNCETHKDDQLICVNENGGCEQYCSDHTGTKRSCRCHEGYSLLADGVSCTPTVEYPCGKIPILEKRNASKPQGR
T1 sequence (P13726 33-295 partner): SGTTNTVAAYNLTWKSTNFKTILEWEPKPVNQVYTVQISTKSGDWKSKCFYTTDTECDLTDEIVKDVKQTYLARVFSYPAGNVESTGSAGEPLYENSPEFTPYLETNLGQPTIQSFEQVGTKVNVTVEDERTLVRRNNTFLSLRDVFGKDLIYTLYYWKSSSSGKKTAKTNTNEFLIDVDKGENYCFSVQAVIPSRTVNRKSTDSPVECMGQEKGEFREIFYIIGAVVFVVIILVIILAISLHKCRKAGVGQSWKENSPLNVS
Summary of the method: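 Human Factor VIIa (5 nmol/L) with human TF (10 nmol/L) in Tris-BSA buffer pH 7.4 containing 15 mmol/L CaCl2 and cephalin, with Spectrozyme FVIIa substrate. Reaction 40 min at room temperature; 4-nitroanilide read at 405 nm. IC50 by non-linear regression over 100 μmol/L–0.1 nmol/L.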

IC50 [nM]	SMILES
5.1	COc1cc(C(Nc2ccc(C(=N)N)cc2)c2nn(-c3cccnn3)c(=O)[nH]2)cc2c1OCCCO2 (stereo not drawn) [Example 147, 4-{[(9-methoxy-3,4-dihydro-2H-benzo[b][1,4]dioxepin-7-yl)-(5-oxo-1-pyridazin-3-yl-4,5-dihydro-1H-[1,2,4]triazol-3-yl)methyl]amino}benzamidine acetate]
59.4	COc1cc(F)c(C(Nc2ccc(C(=N)N)cc2)c2nn(-c3[nH]ncc3C(=O)O)c(=O)[nH]2)cc1OC (stereo not drawn) [Example 157, 5-{3-[(4-carbamimidoylphenylamino)-(2-fluoro-4,5-dimethoxyphenyl)methyl]-5-oxo-4,5-dihydro-[1,2,4]triazol-1-yl}-1H-pyrazole-4-carboxylic acid]
6.9	CCOC(=O)c1cn[nH]c1-n1nc(C(Nc2ccc(C(=N)N)cc2)c2cc(OC)c(OC)cc2F)[nH]c1=O (stereo not drawn) [Example 157d, 5-{3-[(4-carbamimidoylphenylamino)-(2-fluoro-4,5-dimethoxyphenyl)methyl]-5-oxo-4,5-dihydro-[1,2,4]triazol-1-yl}-1H-pyrazole-4-carboxylic acid ethyl ester]
6.5	CCOC(=O)c1cn[nH]c1-n1nc(C(Nc2ccc(C(=N)N)cc2)c2cc(OC)c3c(c2F)OCCO3)[nH]c1=O (stereo not drawn) [Example 175, 5-{3-[(4-carbamimidoylphenylamino)-(5-fluoro-8-methoxy-2,3-dihydrobenzo[1,4]dioxin-6-yl)methyl]-5-oxo-4,5-dihydro-[1,2,4]triazol-1-yl}-1H-pyrazole-4-carboxylic acid ethyl ester acetate]
27.6	COc1cc(OCCCO)c(F)c(C(Nc2ccc(C(=N)N)cc2)c2nn(-c3[nH]ncc3C(=O)O)c(=O)[nH]2)c1 (stereo not drawn) [Example 177, 5-(3-{(4-carbamimidoylphenylamino)-[2-fluoro-3-(3-hydroxypropoxy)-5-methoxyphenyl]methyl}-5-oxo-4,5-dihydro-[1,2,4]triazol-1-yl)-1H-pyrazole-4-carboxylic acid acetate]
9.3	COc1cc(OCCO)c(F)c(C(Nc2ccc(C(=N)N)cc2)c2nn(-c3ncccn3)c(=O)[nH]2)c1 (stereo not drawn) [Example 181, 4-({[2-fluoro-3-(2-hydroxyethoxy)-5-methoxyphenyl]-(5-oxo-1-pyrimidin-2-yl-4,5-dihydro-1H-[1,2,4]triazol-3-yl)methyl}amino)benzamidine acetate]
41.7	COc1cc(OCCO)c(F)c(C(Nc2ccc(C(=N)N)cc2)c2nn(-c3ncsc3C(=O)O)c(=O)[nH]2)c1 (stereo not drawn) [Example 182, 4-(3-{(4-carbamimidoylphenylamino)-[2-fluoro-3-(2-hydroxyethoxy)-5-methoxyphenyl]methyl}-5-oxo-4,5-dihydro[1,2,4]triazol-1-yl)thiazole-5-carboxylic acid trifluoroacetate]
32.2	COc1cc(C(Nc2ccc(C(=N)N)cc2)c2nn(-c3[nH]ncc3C(=O)O)c(=O)[nH]2)c(F)c2c1OCCC2 (stereo not drawn) [Example 189, 5-{3-[(4-Carbamimidoylphenylamino)-(5-fluoro-8-methoxychroman-6-yl)methyl]-5-oxo-4,5-dihydro-[1,2,4]triazol-1-yl}-1H-pyrazole-4-carboxylic acid]
5.4	CCOC(=O)c1cn[nH]c1-n1nc(C(Nc2ccc(C(=N)N)cc2)c2cc(OC)c3c(c2F)OCCCO3)[nH]c1=O (stereo not drawn) [Example 192, 5-{3-[(4-Carbamimidoylphenylamino)-(6-fluoro-9-methoxy-3,4-dihydro-2H-benzo[b][1,4]dioxepin-7-yl)methyl]-5-oxo-4,5-dihydro-[1,2,4]triazol-1-yl}-1H-pyrazole-4-carboxylic acid ethyl ester acetate]
17.8	COc1cc(C(Nc2ccc(C(=N)N)cc2)c2nn(-c3[nH]ncc3C(=O)O)c(=O)[nH]2)c(F)c2c1OCCCO2 (stereo not drawn) [Example 196, 5-{3-[(4-Carbamimidoylphenylamino)-(6-fluoro-9-methoxy-3,4-dihydro-2H-benzo[b][1,4]dioxepin-7-yl)methyl]-5-oxo-4,5-dihydro-[1,2,4]triazol-1-yl}-1H-pyrazole-4-carboxylic acid acetate]
7.8	CCOC(=O)c1cn[nH]c1-n1nc(C(Nc2ccc(C(=N)N)cc2)c2cc(OC)c3c(c2F)OCCO3)[nH]c1=O (stereo not drawn) [Example 197, 5-{3-[(4-Carbamimidoylphenylamino)-(5-fluoro-8-methoxy-2,3-dihydrobenzo[1,4]dioxin-6-yl)methyl]-5-oxo-4,5-dihydro-[1,2,4]triazol-1-yl}-1H-pyrazole-4-carboxylic acid ethyl ester trifluoroacetate]
11.3	COc1cc(OCCO)c(F)c(C(Nc2ccc(C(=N)N)cc2)c2nn(-c3ncccc3N)c(=O)[nH]2)c1 (stereo not drawn) [Example 200, 4-({[1-(3-Aminopyridin-2-yl)-5-oxo-4,5-dihydro-1H-[1,2,4]triazol-3-yl]-[2-fluoro-3-(2-hydroxyethoxy)-5-methoxyphenyl]methyl}amino)benzamidine]
12	COCCOc1cc(OC)cc(C(Nc2ccc(C(=N)N)cc2)c2nn(-c3ncccc3N)c(=O)[nH]2)c1F (stereo not drawn) [Example 202, 4-({[1-(3-Aminopyridin-2-yl)-5-oxo-4,5-dihydro-1H-[1,2,4]triazol-3-yl]-[2-fluoro-5-methoxy-3-(2-methoxyethoxy)phenyl]methyl}amino)benzamidine acetate]
2.7	CCc1cc(OCCCO)c(F)c(C(Nc2ccc(C(=N)N)cc2)c2nn(-c3ncccc3N)c(=O)[nH]2)c1 (stereo not drawn) [Example 204, 4-({[1-(3-Aminopyridin-2-yl)-5-oxo-4,5-dihydro-1H-[1,2,4]triazol-3-yl]-[5-ethyl-2-fluoro-3-(3-hydroxypropoxy)phenyl]methyl}amino)benzamidine acetate]
19.9	COc1cc(OCCO)cc(C(Nc2ccc(C(=N)N)cc2)c2nn(-c3ncccc3N)c(=O)[nH]2)c1 (stereo not drawn) [Example 207, 4-({[1-(3-Aminopyridin-2-yl)-5-oxo-4,5-dihydro-1H-[1,2,4]triazol-3-yl]-[3-(2-hydroxyethoxy)-5-methoxyphenyl]methyl}amino)benzamidine acetate]
4	COc1cc(C(Nc2ccc(C(=N)N)cc2)c2nn(-c3ncccc3N)c(=O)[nH]2)c(F)c2c1OCCC2 (stereo not drawn) [Example 209, 4-{[[1-(3-Aminopyridin-2-yl)-5-oxo-4,5-dihydro-1H-[1,2,4]triazol-3-yl]-(5-fluoro-8-methoxychroman-6-yl)methyl]amino}benzamidine trifluoroacetate]
39.1	COc1cc(OC)c(F)c(C(Nc2ccc(C(=N)N)cc2)c2nn(-c3cccc(C(=O)O)n3)c(=O)[nH]2)c1 (stereo not drawn) [Example 210, 6-{3-[(4-Carbamimidoylphenylamino)-(2-fluoro-3,5-dimethoxyphenyl)methyl]-5-oxo-4,5-dihydro-[1,2,4]triazol-1-yl}pyridine-2-carboxylic acid trifluoroacetate]
48.8	COc1cc(O)c(F)c(C(Nc2ccc(C(=N)N)cc2)c2nn(-c3ncccn3)c(=O)[nH]2)c1 (stereo not drawn) [Example 224, 4-{[(2-Fluoro-3-hydroxy-5-methoxyphenyl)-(5-oxo-1-pyrimidin-2-yl-4,5-dihydro-1H-[1,2,4]triazol-3-yl)methyl]amino}benzamidine acetate]
